Assay results reported in patent publication US10155041B2, “Bacterial phospholipase inhibitors as modulator of colonic bacterial flora” (Universitaetsklinikum Heidelberg, priority 2014, dated 2018).

Key:
bacterial PLA2 = experiment: Determination of PLA2 activity in bacterial lysates (Bhat et al. 1993); format: biochemical
Experimental: FIG. 1 For determination of phospholipase A2 activity according to Bhat et al. (1993), 10 μl of aliquots of certain isolated bacterial strains prepared from fresh stool samples were incubated with arachidonoyl-thio phosphatidylcholine for 1 hour at 25° C. in a Ca^2+ free buffer as described herein. The reaction was terminated by 5,5-dithio-bis-2-nitrobenzoic acid. A405 was measured and specific PLA2 activity expressed as μmol LPC·mg^−1 protein·h^−1
Suspensions of the respective bacterial strain in 0.9% NaCl were prepared in Sarstedt tubes and adjusted to 1.0 (3×10^8CFU/ml) with opacimeter (Densimat® or Densicheck®). Subsequently, a BHI (brain heart infusion, purchased from Merck) was inoculated with 500 μl of the suspension and incubated at 37° C. aerob or in an airtight jar with BD Gas Pak™ for 16 hours overnight on a shaker. […]
PLA2 activity was determined as described by Bhat, et al. (1993).
For substrate preparation, 125 μg substrate arachidonyl PC (AAPC) was pipetted into Eppendorf reaction tubes (therefore, the volume to pipet from AAPC stocks in ethanol as supplied by Cayman Chemicals was calculated). […]
Finally, the absorption was read at 405 nm and 595 nm.
A unit of PLA2 is defined as a nmol of product formed by 1 ml sample in 1 h incubation. PLA2 activity was determined using the following formula: PLA2 activity(unit)=(OD405 nm−OD595 nm)×78.62×50

[1] = tested on: host mucosal epithelial cells; experiment: Absorption from the intestinal lumen; details: intestinal lumen of the host
hepatic PLA2 = details: Stremmel & Staffer, 2012, et al.; cited from earlier work

Question: What does the source list for “ursodeoxycholyl lysophosphatidylethanolamide [UDCA-LPE]”?
Answer: inhibition of bacterial PLA2 (bacterial PLA2): potent inhibitors; absorption by host mucosal epithelial cells [1]: do not enter/are not absorbed by the host mucosal epithelial cells in a considerable amount; inhibition of bacterial phospholipase C (PLC) (phospholipase C (PLC)): shown to be inhibited; inhibition of hepatic PLA2 (hepatic PLA2): interferes with hepatic PLA2
